Test results reported in publication PMC4414177, “A novel orally active water-soluble inhibitor of human glutathione transferase exerts a potent and selective antitumor activity against human melanoma xenografts” (Oncotarget, 2015).

Legend:
SK23-MEL cells [1] = experiment: Annexin V / PI staining (flow cytometry); type: cell-based, human; conditions: 48 hrs of treatment
Protocol: (§1) A375 and SK23-MEL cells, were fixed with 70% ethanol overnight, stained with PI staining buffer ([…] and 1% Triton X-100) and analyzed by a FACSCalibur (BD Bioscence, San Jose, CA, USA). The percentage of early apoptotic, late apoptotic, and necrotic cells was determined by simultaneous staining of cells with PI (2 μg/ml) and Annexin V-FITC (0.5 μg/ml) (Sigma Aldrich), according to manufacturer's protocol. Flow cytometric data were analyzed by the FlowJo 8.8.6 software (Tree Stare, Inc, Ashland, OR, USA).

A375 cells = experiment: Annexin V / PI staining (flow cytometry); type: cell-based, human
Protocol: as §1

SK23-MEL cells [2] = experiment: Cell morphology (phase-contrast microscopy); type: cell-based, human; conditions: 7 μM, 48 hrs
A375 tumor xenografts = experiment: Immunohistochemical analysis of A375 tumor xenografts; type: in vivo, mice
From the text: At sacrifice, tumors were removed, formalin-fixed and paraffin embedded. All internal organs were fixed and paraffin embedded for the morphological study to evaluate drug effects in normal tissues. Three μm-thick sections were cut and stained with haematoxylin and eosin (H&E). Two observers blindly classified the tissues for necrotic areas, evaluated as percent of total area, mitosis number in 10 high power field randomly selected away from the ischemic necrosis.
Briefly, 3-μm-thick sections were pre-treated with EDTA citrate pH 7.8, for 30 min, at 95°C and then incubated respectively with rabbit monoclonal anti-Phospho-SAPK/JNK (1:100, 81E11, Cell Signaling, Danvers Massachusetts, USA) and rabbit polyclonal anti-Caspase3, for 60 min (1:100, PA5-16335, ThermoFisher Scientific, Walthman, MA, USA). Washing were performed with PBS 4% + Tween20, pH 7.6, by UCS diagnostic.

[3] = tested on: SK23-MEL human melanoma cells; experiment: SK23-MEL cellular xenograft model, antitumor efficacy; type: in vivo, mice; conditions: 8 mg/kg/day i.v. or oral, q1dx5 three weeks
Protocol: (§2) SK23-MEL and G-361 cells were injected s.c. (in both cases, 1×10^6) into the right flank of NOD/SCID and SCID male mice, respectively. Animals were randomly divided in groups of 6 mice and treatments were started at day 10 (SK23-MEL) and 14 (G-361), when tumors were clearly palpable.
(§3) Primary tumor growth was determined for all animals by caliper measurement (minor and major axis length), three times per week, until they were sacrificed. Primary tumor volume was determined using the following equation: V (cm^3)=(α^2×β)/2 (Eq. 3)
(§4) The efficacy of the treatment was also analyzed by calculation of the percentage of Increase in Life Span (% ILS), since this analysis gives an evidence of clinical potency. Survival endpoint for each animal was fixed at the day when tumor volume reached 1.0 cm^3 (A375) or 0.4 cm^3 (SK23-MEL and G-361), and data were used to plot the relative Kaplan-Meier curves. Treatment efficacy was then evaluated by comparing the Median Survival Time (MST) of treated group with the MST of control group, and expressed as percentage of ILS: % ILS=[100×(MSTtreated group)/(MSTcontrol group)]−100 (Eq. 4)
(§5) Treatment was considered effective when % ILS > 20%.

SK23-MEL cells [4] = experiment: Melanin content; type: cell-based, human; conditions: 7 μM, 48 hrs, p < 0.05
Protocol: Cells (1×10^6) were lysed in 1M NaOH at 100°C, for 1 hour and then centrifuged at 15,000 g, for 20 minutes. […] Tyrosinase activity was examined by measuring spectrophotometrically at 475 nm the rate of L-DOPA oxidation to dopachrome over 1 hour at 37°C. Cells [1×10^6 in 40 μl of 20 mM potassium phosphate buffer (pH 6.8) containing 1% Triton X-100 and 1 mM PMSF] were disrupted by freezing and thawing and centrifuged at 15,000 g for 20 minutes at 4°C. The assay was started by addition of 100 μl of 2 mg/ml L-DOPA to 40 μl of supernatant. Tyrosinase activity was expressed as change in absorbance, per hour, per 10^6 cells.

[5] = tested on: G-361 human melanoma cells; experiment: G-361 cellular xenograft model, antitumor efficacy; type: in vivo, mice; conditions: G-361 xenograft
Protocol: as §2, §3, §4, §5

SK23-MEL = experiment: Cell growth inhibition, SRB assay; type: cell-based; conditions: Homo sapiens, 48 h
Protocol: (§6) The IC50 values for each compound were then evaluated by the SRB assay.

IST-MEL-1 = experiment: Cell growth inhibition, SRB assay; type: cell-based; conditions: Homo sapiens, IST-MEL-1, 48 h
Protocol: as §6

MALME-3M = experiment: Cell growth inhibition, SRB assay; type: cell-based; conditions: Homo sapiens, 48 h
Protocol: as §6

A375 = experiment: Cell growth inhibition, SRB assay; type: cell-based; conditions: Homo sapiens, A-375, A375, 48 h
Protocol: as §6

G-361 = experiment: Cell growth inhibition, SRB assay; type: cell-based; conditions: Homo sapiens, G-361, 48 h
Protocol: as §6

SMILES: O=[N+]([O-])c1ccc(SCCOCCOCCO)c2nonc12 [MC3181, 2-(2-(2-((7-nitrobenzo[c][1,2,5]oxadiazol-4-yl)thio)ethoxy)ethoxy)ethanol]
- percentage of total apoptotic cells (SK23-MEL cells [1]): about 20%
- percentage of total apoptotic cells (A375 cells; A375, 24 hrs post-treatment): approximately 23%
- percentage of total apoptotic cells (A375 cells; A375, 48 hrs post-treatment): ~37%
- cell morphology (SK23-MEL cells [2]): clear morphological changes
- higher apoptosis compared to untreated controls (A375 tumor xenografts; A375 tumor xenografts, data not shown): about 20%
- JNK phosphorylation and caspase-3 in tumors (A375 tumor xenografts; A375 xenografts, 8 mg/kg, P-JNK 6 hrs after treatment, caspase-3 at end of treatment): significant increase of JNK phosphorylation and caspase-3 activity
- ILS [3]: < 20%
- tumor growth [3]: a certain degree of delay in tumor growth
- melanin content (SK23-MEL cells [4]): significant increase
- animals still alive at the end of the observation period ([5]; 8 mg/kg/day oral): 50%
- disease course ([5]; 8 mg/kg/day oral): stabilization and regression of the disease in half of the treated mice
- tumor growth ([5]; 8 mg/kg/day, both administration routes (i.v., oral)): significant delay in tumor growth
- IC50 (SK23-MEL): 1790 ± 50 nM
- IC50 (IST-MEL-1): 920 ± 70 nM
- IC50 (MALME-3M): 2420 ± 160 nM
- IC50 (A375): 2310 ± 40 nM
- IC50 (G-361): 780 ± 40 nM
